Measurements taken from US6277859A, “Morphinan derivative and its pharmaceutical applications” (priority 1992, dated 2001).
Where a name gives a salt, the structure may show the parent alone.

Tests used:
κ receptor [1] = target: T1, κ receptor (Mus musculus, UniProt P33534); experiment: Ke with norBNI in isolated mouse vas deference preparation; assay type: cell-based, mouse (male ddy); settings: for Ke norBNI: norBNI (κ)
T1 construct: The isolated vas deference was filled with Krebes-Henseleit solution; from tissue; host or cells: isolated vas deferens of male ddy mouse
Experimental: (§1) A male ddy mouse was used in this test. The isolated vas deference was filled with Krebes-Henseleit solution (NaCl 118 mM; KCl 4.7 mM; CaCl2 2.5 mM; KH2 PO4 1.1 mM; NaHCO3 25 mM; and glucose 10 mM) warmed to 37° C. and suspended in a Magnus tube ventilated with 5% carbon dioxide and 95% oxygen. Electrical stimulus was performed at 0.1 Hz for 5.0 ms by means of ring-shaped platinum electrodes located above and below. Tissue contractions were recorded on a polygraph using an isometric transducer.
(§2) Then after adequately washing with nutrient solution and the contraction reaction stabilized, naloxone, a μ agonist, NTI, a δ agonist, or norBNI, a κ […], were added and the test compound was again cumulatively added after roughly 20 minutes. The Ke value was calculated using the following calculation formula from the difference in the efficacies of both agonists.
(§3) Ke=[Conc. of added agonist]/(IC50 ratio-1)
(§4) IC50 ratio IC50 in the presence of agonist/IC50 in the absence of agonist

ddY mice = experiment: animal or person; assay type: in vivo, mouse (ddY); settings: mouse, s.c. 15 min before i.p. 0.6% acetic acid
Experimental: Analgesic Activity Test Using the Acetic Acid-induced Writhing Method
5 week old ddY mice were used in this test. After intraperitoneal administration of 0.1 ml of 0.6% aqueous acetic acid per 10 g of body weight, the number of writhing reactions that occurred in 10 minutes starting 10 minutes after administration was evaluated for the indicator. The test drug was administered subcutaneously into the backs of the animals 15 minutes before administration of acetic acid.

Wistar rats = experiment: Evaluation of diuretic action; assay type: in vivo, rat (male Wistar); settings: sc, rat, s.c., urine output for 5 h after 20 ml/kg saline oral; for ED200: read-out: ED200, diuretic action (dose giving urine output of 200, non-dosed group = 100)
Experimental: Evaluation of Diuretic Action
7-8 week old male Wistar rats were used in this test after prohibiting from drinking water for 1 hour before testing. After discharging any urine accumulated in the bladder by gently stimulating the lower abdomens of the animals, the drug was administered subcutaneously. After 30 minutes, the animals were then forcibly given 20 ml/kg of physiological saline orally. The animals were then placed in metabolic cages immediately after administration of the drug (2 animals/cage) and urine output for 5 hours after loading with physiological saline was measured. Drug efficacy was expressed in the form of those doses resulting in urine outputs of 200 and 500, respectively, when the urine output of a non-dosed group was taken to be 100. Those doses were expressed as the ED200 and ED500 values, respectively.

μ receptor = target: T2, μ receptor (Mus musculus, UniProt P42866); experiment: Ke with naloxone in isolated mouse vas deference preparation; assay type: cell-based, mouse (male ddy)
T2 construct: The isolated vas deference was filled with Krebes-Henseleit solution; from tissue; host or cells: isolated vas deferens of male ddy mouse
Experimental: as §1, §2, §3, §4

δ receptor = target: T3, δ receptor (Mus musculus, UniProt P32300); experiment: Ke with NTI in isolated mouse vas deference preparation; assay type: cell-based, mouse (male ddy); settings: for Ke NTI: NTI (δ)
T3 construct: The isolated vas deference was filled with Krebes-Henseleit solution; from tissue; host or cells: isolated vas deferens of male ddy mouse
Experimental: as §1, §2, §3, §4

[2] = test system: isolated mouse vas deference; experiment: Opioid activity test using the isolated mouse vas deference preparation (electrically stimulated contractions); assay type: cell-based, mouse (male ddy); settings: suppression of electrically stimulated contractions
Experimental: Opioid Activity Test Using the Isolated Mouse Vas Deference Preparation
as §1, §2

κ receptor [3] = target: T4, κ receptor (Cavia porcellus, UniProt P41144); experiment: Ke with norBNI in isolated guinea pig preparation; assay type: cell-based, guinea pig (male Hartley); settings: guinea pig ileum
T4 construct: from tissue; host or cells: longitudinal muscle of the ileum of male Hartley guinea pig
Experimental: A male Hartley guinea pig was used in this test.
After sacrificing the guinea pig and extracting the ileum, the lumen was washed with nutrient solution and only the longitudinal muscle was isolated. This longitudinal muscle was filled with Krebes-Henseleit solution (NaCl 118 mM; KCl 4.7 mM; CaCl2 2.5 mM; KH2 PO4 1.2 mM; NaHCO3 25 mM; MgSO4 1.2 mM and glucose 10 mM) warmed to 37° C. and suspended in a Magnus tube ventilated with 5% carbon dioxide and 95% oxygen. Electrical stimulus was performed at 0.1 Hz for 5.0 ms by means of ring-shaped platinum electrodes located above and below. Tissue contractions were recorded on a polygraph using an isometric transducer.
as §2, with “antagonist,” for “agonist, NTI, a δ agonist,”
Ke=[Conc. of added antagonist]/(IC50 ratio-1)
IC50 ratio=IC50 in the presence of antagonist/IC50 in the absence of antagonist

T1 sequence (P33534 whole entry): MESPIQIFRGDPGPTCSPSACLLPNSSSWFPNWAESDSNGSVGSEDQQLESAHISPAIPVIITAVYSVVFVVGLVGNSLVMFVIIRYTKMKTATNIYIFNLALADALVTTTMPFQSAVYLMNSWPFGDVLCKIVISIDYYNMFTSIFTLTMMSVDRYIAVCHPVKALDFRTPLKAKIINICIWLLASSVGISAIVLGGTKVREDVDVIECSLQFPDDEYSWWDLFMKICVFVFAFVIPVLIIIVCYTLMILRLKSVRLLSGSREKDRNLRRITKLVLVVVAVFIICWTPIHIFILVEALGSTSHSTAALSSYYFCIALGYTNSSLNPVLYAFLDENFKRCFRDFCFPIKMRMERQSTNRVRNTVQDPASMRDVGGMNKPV
T2 sequence (P42866 whole entry): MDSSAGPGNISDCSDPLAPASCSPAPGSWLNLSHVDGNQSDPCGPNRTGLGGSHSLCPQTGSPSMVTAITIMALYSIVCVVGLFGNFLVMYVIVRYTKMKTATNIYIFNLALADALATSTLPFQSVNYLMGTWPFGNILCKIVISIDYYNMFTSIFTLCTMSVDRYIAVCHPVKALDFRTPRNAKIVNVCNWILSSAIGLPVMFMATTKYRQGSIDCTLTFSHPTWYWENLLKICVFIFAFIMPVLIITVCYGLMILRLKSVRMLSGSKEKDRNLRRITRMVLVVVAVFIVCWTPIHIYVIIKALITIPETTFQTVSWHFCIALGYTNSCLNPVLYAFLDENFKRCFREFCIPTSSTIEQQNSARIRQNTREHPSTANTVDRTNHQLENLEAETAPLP
T3 sequence (P32300 whole entry): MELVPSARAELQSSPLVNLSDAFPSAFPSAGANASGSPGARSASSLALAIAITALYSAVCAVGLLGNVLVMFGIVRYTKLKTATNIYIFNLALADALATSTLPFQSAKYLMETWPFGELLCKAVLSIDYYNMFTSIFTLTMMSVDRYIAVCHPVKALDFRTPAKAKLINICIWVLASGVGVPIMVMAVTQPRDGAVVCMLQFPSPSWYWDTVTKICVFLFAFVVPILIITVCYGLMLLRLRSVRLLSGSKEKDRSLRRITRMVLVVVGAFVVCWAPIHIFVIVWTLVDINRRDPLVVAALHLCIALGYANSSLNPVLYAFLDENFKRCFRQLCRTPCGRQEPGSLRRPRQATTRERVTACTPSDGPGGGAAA
T4 sequence (P41144 whole entry): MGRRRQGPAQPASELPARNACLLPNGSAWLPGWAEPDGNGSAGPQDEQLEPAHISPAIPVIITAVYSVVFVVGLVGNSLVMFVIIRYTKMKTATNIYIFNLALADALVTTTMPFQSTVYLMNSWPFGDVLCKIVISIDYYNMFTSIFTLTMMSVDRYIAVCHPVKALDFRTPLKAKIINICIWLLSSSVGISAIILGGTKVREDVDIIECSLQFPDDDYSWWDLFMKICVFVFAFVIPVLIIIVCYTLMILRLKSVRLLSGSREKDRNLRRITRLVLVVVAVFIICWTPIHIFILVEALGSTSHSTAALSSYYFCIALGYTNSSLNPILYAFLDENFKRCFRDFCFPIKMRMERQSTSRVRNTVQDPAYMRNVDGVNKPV

Row | SMILES | selective agonist for κ receptors (in words) (κ receptor [1]) | Ke norBNI (κ receptor [1]) | ED50, acetic acid writhing (ddY mice) | ED200 (Wistar rats) | Ke Naloxone (μ receptor) | Ke NTI (δ receptor) | IC50 [2] | ED50 (ddY mice; sc, read-out: ED50, acetic acid writhing) | selective agonist for δ receptors (in words) (δ receptor) | Ke norBNI (κ receptor [3]) | ED500 (Wistar rats; read-out: ED500, diuretic action (dose giving urine output of 500, non-dosed group = 100))
1 | CN(C(=O)CC(=O)c1ccccc1)[C@H]1CC[C@@]2(O)[C@H]3Cc4ccc(O)c5c4[C@@]2(CCN3CC2CC2)[C@H]1O5 [Compound 98, 17-cyclopropylmethyl-3,14β-dihydroxy-4,5α-epoxy-6α-(N-methylbenzoylacetamido)morphinan.tartrate] | selective agonists for κ receptors | 1.35 nM | 6.8 µg/kg | 6.5 µg/kg |  |  |  |  |  |  | 
2 | CC(=O)Oc1ccc2c3c1O[C@H]1[C@H](N(C)C(=O)/C=C/c4ccccc4)CC[C@@]4(O)[C@@H](C2)N(CC2CC2)CC[C@]314 [Compound 140, 17-Cyclopropylmethyl-3-acetoxy-14β-hydroxy-4,5α-epoxy-6β-(N-methylcinnamamido)morphinan.tartrate] | selective agonists for κ receptors | 1.06 nM | 3.4 µg/kg |  | 320 nM | 261 nM |  |  |  |  | 
3 | CCCCOC(=O)N(C)[C@H]1CC[C@@]2(O)[C@H]3Cc4ccc(O)c5c4[C@@]2(CCN3CC2CC2)[C@H]1O5 [Compound 47, 17-cyclopropylmethyl-4,5α-epoxy-3,14β-dihydroxy-6α-(N-methylbutyroxycarbamido)morphinan.tartrate] | selective agonists for κ receptors | 0.140 nM | 0.52 µg/kg | 1.6 µg/kg | 63.5 nM | 10.4 nM |  |  |  |  | 
4 | CN(C(=O)CSc1ccccc1)[C@H]1CC[C@@]2(O)[C@H]3Cc4ccc(O)c5c4[C@@]2(CCN3CC2CC2)[C@H]1O5 [Compound 45, 17-cyclopropylmethyl-4,5α-epoxy-3,14,β-dihydroxy-6α-(N-methylthiophenoxyacetamido)morphinan.tartrate] | selective agonists for κ receptors | 0.416 nM | 3.8 µg/kg | 8.1 µg/kg | 26.5 nM | 135 nM |  |  |  |  | 
5 | CN(C(=O)/C=C/c1ccccc1)[C@@H]1CC[C@@]2(O)[C@H]3Cc4ccc(O)c5c4[C@@]2(CCN3CC2CC2)[C@H]1O5 [Compound 99, 17-cyclopropylmethyl-3,14β-dihydroxy-4,5α-epoxy-6β-(N-methylcinnamamido)morphinan.hydrochloride] | selective agonists for κ receptors | 0.652 nM | 1.8 µg/kg | 1.1 µg/kg | 94.5 nM |  |  |  |  |  | 
6 | COc1cccc(/C=C/C(=O)N(C)[C@@H]2CC[C@@]3(O)[C@H]4Cc5ccc(O)c6c5[C@@]3(CCN4CC3CC3)[C@H]2O6)c1 [Compound 63] | selective agonists for κ receptors | 1.60 nM |  | 3.8 µg/kg | 60.9 nM | 96.9 nM | 746 pM | 1.1 µg/kg |  |  | 
7 | CN(C(=O)/C=C/C1CCCCC1)[C@@H]1CC[C@@]2(O)[C@H]3Cc4ccc(O)c5c4[C@@]2(CCN3CC2CC2)[C@H]1O5 [Compound 68, 17-cyclopropylmethyl-3,14,β-dihydroxy-4,5α-epoxy-6β-(N-methyl-3-cyclohexylacrylamido) morphinan.tartrate] | selective agonists for κ receptors | 1.08 nM |  | 1.6 µg/kg | 5710 nM | 143 nM | 457 pM |  |  |  | 
8 | CN(C(=O)/C=C/c1cccc(F)c1)[C@H]1CC[C@@]2(O)[C@H]3Cc4ccc(O)c5c4[C@@]2(CCN3CC2CC2)[C@H]1O5 [Compound 96, 17-cyclopropylmethyl-3,14β-dihydroxy-4,5α-epoxy-6α-(N-methyl-3-fluorocinnamamido)morphinan.tartrate] |  | 4.21 nM | 0.86 µg/kg | 1.3 µg/kg | 32.5 nM | 1.61 nM |  |  | selective agonists for δ receptors |  | 
9 | CN(C(=O)Cc1ccc(Cl)c(Cl)c1)[C@H]1CC[C@@]2(O)[C@H]3Cc4ccc(O)c5c4[C@@]2(CCN3CC2CC2)[C@H]1O5 [Compound 1, 17-cyclopropylmethyl-4,5α-epoxy-3,14β-dihydroxy-6α-(N-methyl-3,4-dichlorophenylacetamido)morphinan.hydrochloride] | selective agonists for κ receptors | 0.548 nM |  | 2.7 µg/kg | 53 nM | 17.3 nM |  |  |  | 0.16 nM | 
10 | CN(C(=O)OCc1ccccc1)[C@H]1CC[C@@]2(O)[C@H]3Cc4ccc(O)c5c4[C@@]2(CCN3CC2CC2)[C@H]1O5 [Compound 42, 17-cyclopropylmethyl-3,14β-dihydroxy-4,5α-epoxy-6α-(N-methylbenzyloxycarbamido)morphinan.tartrate] | selective agonists for κ receptors | 0.905 nM | 1.36 µg/kg | 0.85 µg/kg | 186 nM | 63.5 nM |  |  |  |  | 6.1 µg/kg
